Test results from patent US12629359B2 (UNIVERSITA' DEGLI STUDI DI BRESCIA, priority 2020, dated 2026).

System: SYN120 tg mice
Assay: Open-field motility after chronic 6 weeks treatment in SYN120 tg mice
Assay type: in vivo, mouse
Conditions: daily i.p. 5 mg/kg for 6 weeks, vs vehicle
Protocol: Two groups of 12 month-old SYN120 tg mice (N=4 animals per group) were subjected to daily i.p. administration of either vehicle or compound I-threo (5 mg/kg) for 6 weeks. All experiments were made in accordance with Directive 2010/63/EU of the European Parliament and of the Council of 22 Sep. 2010 on the protection of animals used. All experimental or surgical procedures conformed to the National Research Guide for the Care and Use of Laboratory Animals and were approved by the Animal Research Committees of the University of Brescia (Protocol Permit 719/2015-PR). At the end of treatment, the total distance travelled by the mice was recorded in the open field arena. […] Student's t-test. N=3 for each experimental group.

COC(=O)[C@@H](c1ccc(C)cc1)C1CCCCN1.Cl (stereo partly drawn) [I-threo, threo methyl 2-(piperidin-2-yl)-2-(p-tolyl)acetate hydrochloride]
total motility (total distance travelled) in open field: significant improvement in total motility
